Reference: ChEMBL document CHEMBL3132757, “A new class of fluorinated 5-pyrrolidinylsulfonyl isatin caspase inhibitors for PET imaging of apoptosis” (Medchemcomm, 2013)
pIC50: −log10 of the molar value.

Legend:
[1] = Lipophilicity, log P of the compound by HPLC method; format: physicochemical
Caspase-6 = target: T1, Caspase-6 (Homo sapiens, UniProt P55212); assay: Inhibition of recombinant human caspase-6 expressed in Escherichia coli using Ac-VEID-AMC as substrate preincubated for 30 mins before substrate addition measured after 2 hrs
T1 sequence (P55212 whole entry): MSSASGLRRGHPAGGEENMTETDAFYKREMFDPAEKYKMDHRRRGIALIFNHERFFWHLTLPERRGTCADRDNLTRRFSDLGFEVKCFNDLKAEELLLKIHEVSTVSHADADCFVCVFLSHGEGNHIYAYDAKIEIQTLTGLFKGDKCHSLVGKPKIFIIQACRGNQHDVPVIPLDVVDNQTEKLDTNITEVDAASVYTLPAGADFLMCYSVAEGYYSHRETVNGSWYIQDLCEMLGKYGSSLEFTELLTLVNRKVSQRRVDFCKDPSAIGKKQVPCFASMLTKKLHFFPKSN

Caspase-8 = Caspase-8 (Homo sapiens, UniProt Q14790); assay: Inhibition of recombinant human caspase-8 expressed in Escherichia coli using Ac-IETD-AMC as substrate preincubated for 30 mins before substrate addition measured after 2 hrs
Caspase-1 = target: T2, Caspase-1 (Homo sapiens, UniProt P29466); assay: Inhibition of recombinant human caspase-1 expressed in Escherichia coli using Ac-YVAD-AMC as substrate preincubated for 30 mins before substrate addition measured after 2 hrs
T2 sequence (P29466 whole entry): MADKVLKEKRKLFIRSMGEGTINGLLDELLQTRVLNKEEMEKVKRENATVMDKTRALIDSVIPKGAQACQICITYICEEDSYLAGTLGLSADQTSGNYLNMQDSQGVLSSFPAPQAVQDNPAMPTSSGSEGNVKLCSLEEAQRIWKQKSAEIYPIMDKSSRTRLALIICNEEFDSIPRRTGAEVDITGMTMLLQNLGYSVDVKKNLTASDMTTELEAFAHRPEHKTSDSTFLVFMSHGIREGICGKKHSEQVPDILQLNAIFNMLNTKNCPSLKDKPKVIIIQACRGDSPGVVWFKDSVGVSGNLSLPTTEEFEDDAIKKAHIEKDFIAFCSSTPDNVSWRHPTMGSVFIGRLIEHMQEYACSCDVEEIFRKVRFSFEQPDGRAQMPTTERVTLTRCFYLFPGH

Caspase-3 = target: T3, Caspase-3 (Homo sapiens, UniProt P42574); assay: Inhibition of recombinant human caspase-3 expressed in Escherichia coli using Ac-DEVD-AMC as substrate preincubated for 30 mins before substrate addition measured after 2 hrs
T3 sequence (P42574 whole entry): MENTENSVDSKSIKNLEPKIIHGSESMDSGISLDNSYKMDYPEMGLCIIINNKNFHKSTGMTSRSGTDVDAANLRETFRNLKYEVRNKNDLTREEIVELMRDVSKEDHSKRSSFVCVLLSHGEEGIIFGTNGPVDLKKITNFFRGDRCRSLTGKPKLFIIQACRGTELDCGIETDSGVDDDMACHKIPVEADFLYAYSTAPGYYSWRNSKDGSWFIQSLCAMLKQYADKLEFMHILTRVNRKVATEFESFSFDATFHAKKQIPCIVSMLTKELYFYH

Caspase-7 = target: T4, Caspase-7 (Homo sapiens, UniProt P55210); assay: Inhibition of recombinant human caspase-7 expressed in Escherichia coli using Ac-DEVD-AMC as substrate preincubated for 30 mins before substrate addition measured after 2 hrs
T4 sequence (P55210 whole entry): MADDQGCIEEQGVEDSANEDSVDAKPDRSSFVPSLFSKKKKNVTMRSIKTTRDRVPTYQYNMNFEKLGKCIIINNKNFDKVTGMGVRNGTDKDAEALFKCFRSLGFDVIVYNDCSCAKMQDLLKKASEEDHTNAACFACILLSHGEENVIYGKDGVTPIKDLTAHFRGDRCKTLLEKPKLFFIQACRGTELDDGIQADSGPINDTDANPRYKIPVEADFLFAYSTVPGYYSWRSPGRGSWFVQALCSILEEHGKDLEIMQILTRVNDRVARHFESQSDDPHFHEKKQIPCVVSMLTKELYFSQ

Sequence of Caspase-8 (Q14790 217-374 limits assumed): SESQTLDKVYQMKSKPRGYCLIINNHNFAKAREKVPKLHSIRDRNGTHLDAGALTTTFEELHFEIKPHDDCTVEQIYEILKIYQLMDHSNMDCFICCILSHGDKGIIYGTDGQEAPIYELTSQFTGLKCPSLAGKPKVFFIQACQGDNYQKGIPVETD
Sequence of Caspase-8 (Q14790 385-479 limits assumed): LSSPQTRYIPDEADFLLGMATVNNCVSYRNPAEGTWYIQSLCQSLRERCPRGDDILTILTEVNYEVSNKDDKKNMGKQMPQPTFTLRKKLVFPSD

| SMILES | logP [1] | pIC50 (Caspase-6) | pIC50 (Caspase-8) | pIC50 (Caspase-1) | pIC50 (Caspase-3) | pIC50 (Caspase-7) |
| --- | --- | --- | --- | --- | --- | --- |
| O=C1C(=O)N(Cc2ccc(OCCF)cc2)c2ccc(S(=O)(=O)N3CCC[C@H]3COc3ccccc3)cc21 | 3.78 | < 5.00 | < 5.00 | < 5.00 | 8.21 |  |
| COC[C@@H]1CCCN1S(=O)(=O)c1ccc2c(c1)C(=O)C(=O)N2Cc1ccc(OCCF)cc1 | 2.08 | < 5.00 | < 5.00 | < 5.00 | 8.08 | 8.34 |
| COC[C@@H]1CCCN1S(=O)(=O)c1ccc2c(c1)C(=O)C(=O)N2Cc1ccc(OC)cc1 | 2.2 | < 5.00 | < 5.00 | < 5.00 | 7.75 | 8.21 |
| O=C1C(=O)N(Cc2ccccc2[N+](=O)[O-])c2ccc(S(=O)(=O)N3CCC[C@H]3CF)cc21 | 2.28 | 5.29 | < 5.00 | 6.17 | 8.51 | 7.70 |
| O=C1C(=O)N(Cc2cccc([N+](=O)[O-])c2)c2ccc(S(=O)(=O)N3CCC[C@H]3CF)cc21 | 2.28 | < 5.00 | < 5.00 | 5.33 | 7.89 | 7.78 |
| O=C1C(=O)N(Cc2ccc([N+](=O)[O-])cc2)c2ccc(S(=O)(=O)N3CCC[C@H]3CF)cc21 | 2.39 | < 5.00 | < 5.00 | < 5.00 | 8.20 | 7.95 |
| O=C1C(=O)N(Cc2nnnn2Cc2ccccc2)c2ccc(S(=O)(=O)N3CCC[C@H]3CF)cc21 | 1.94 | < 5.00 | < 5.00 | 5.73 | 8.36 | 7.60 |
| O=C1C(=O)N(Cc2ccc(OCCF)cc2)c2ccc(S(=O)(=O)N3CC4CNCC4C3)cc21 (stereo unspecified) | 1.19 | < 5.00 | < 5.00 | < 5.00 | 5.66 | 5.45 |
| O=C1C(=O)N(Cc2ccc(OCCF)cc2)c2ccc(S(=O)(=O)N3CCC[C@H]3CF)cc21 | 2.33 | < 5.00 | < 5.00 | < 5.00 | 7.72 | 7.38 |
| O=C1C(=O)N(Cc2ccccc2)c2ccc(S(=O)(=O)N3CCC[C@H]3CF)cc21 | 2.61 | < 5.00 | < 5.00 | < 5.00 | 7.86 | 7.69 |
| O=C1C(=O)N(Cc2ccc(Br)cc2)c2ccc(S(=O)(=O)N3CCC[C@H]3CF)cc21 | 3.11 | < 5.00 | < 5.00 | < 5.00 | 8.21 | 7.80 |
| O=C1C(=O)N(Cc2ccc(Cl)cc2)c2ccc(S(=O)(=O)N3CCC[C@H]3CF)cc21 | 2.96 | < 5.00 | < 5.00 | < 5.00 | 8.15 | 7.85 |
| O=C1C(=O)N(Cc2ccc(F)cc2)c2ccc(S(=O)(=O)N3CCC[C@H]3CF)cc21 | 2.5 | < 5.00 | < 5.00 | < 5.00 | 7.82 | 7.85 |
| O=C1C(=O)N(Cc2ccccc2I)c2ccc(S(=O)(=O)N3CCC[C@H]3CF)cc21 | 3.25 | 5.41 | < 5.00 | 6.28 | 8.02 | 7.62 |
| O=C1C(=O)N(Cc2cccc(I)c2)c2ccc(S(=O)(=O)N3CCC[C@H]3CF)cc21 | 3.21 | < 5.00 | < 5.00 | 5.77 | 7.94 | 7.66 |
| O=C1C(=O)N(Cc2ccc(I)cc2)c2ccc(S(=O)(=O)N3CCC[C@H]3CF)cc21 | 3.31 | 5.42 | < 5.00 | < 5.00 | 8.09 | 8.27 |
| COc1ccc(CN2C(=O)C(=O)c3cc(S(=O)(=O)N4CCC[C@H]4CF)ccc32)cc1 | 2.65 | < 5.00 | < 5.00 | < 5.00 | 7.86 | 8.02 |
